Measured values taken from US10696693B2, “Fused imidazole derivatives as TGF-beta inhibitors” (Rigel Pharmaceuticals, Inc., priority 2014, dated 2020).
Read-outs that look alike come from different tables or passages of the source.

Columns and labels:
GDF8 = assay: AlphaScreen SureFire p-SMAD3 (Ser423/425) assay, GDF8-stimulated cells; format: cell-based; settings: Mus musculus
Outline: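 Lysate (5 μL) went into 384-well shallow plates with 5 μL of Reaction Buffer, Activation Buffer and AlphaScreen Acceptor bead mix. Plates were sealed, kept dark and shaken for 2 hours at room temperature. Donor beads in dilution buffer (2 μL) were added for another 1½ hours, and p-SMAD3 signal was read on a Synergy-4 or Enspire reader.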

TGF-β = assay: AlphaScreen SureFire p-SMAD3 (Ser423/425) assay, TGF-β-stimulated cells; format: cell-based; settings: Mus musculus
Outline: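 The p-SMAD-3 (Ser423/425) SureFire assay measured phosphorylation of endogenous SMAD-3 in cell lysates. Cells were plated overnight in collagen-coated plates, exposed to three-fold serially diluted compounds for about 10 minutes, then stimulated with TGFβ. Lysates (5 μL) received acceptor bead mix for 2 hours, then donor beads for 1½ hours before AlphaScreen reading.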

[1] = MPC-11, p-SMAD3 (Ser423/425) AlphaScreen in cell lysate, MPC11, GDF8 stimulation, read-out: GDF8: inhibition of GDF8 signaling, GDF pSMAD (MPC11)
[2] = p-SMAD3 (Ser423/425) AlphaScreen in cell lysate, MPC-11, TGF-β stimulation, read-out: TGF-β: inhibition of TGF-β signaling, TGF-β pSMAD (MPC-11)
[3] = MPC-11, read-out: GDF8: inhibition of GDF8 signaling, GDF pSMAD (MPC11), p-SMAD3 (Ser423/425) AlphaScreen in cell lysate, GDF8 stimulation
[4] = MPC-11, read-out: TGF-β: inhibition of TGF-β signaling, TGF-β pSMAD (MPC-11), p-SMAD3 (Ser423/425) AlphaScreen in cell lysate, TGF-β stimulation

Row | Compound | IC50 (GDF8; [1]) [µM] | IC50 (TGF-β; [2]) [µM] | IC50 (GDF8; [3]) [µM] | IC50 (TGF-β; [4]) [µM]
1 | Fc1cc(F)c(F)c(-c2nc3n(c2-c2ccc4nccnc4c2)CCN3)c1 [Compound 111, 6-(6-(2,3,5-trifluorophenyl)-2,3-dihydro-1H-imidazo[1,2-a]imidazol-5-yl)quinoxaline] | < 0.05 | < 0.05 |  | 
2 | Fc1ccc(-c2nc3n(c2-c2ccc4cn[nH]c4c2)CCC3)cc1 [Compound 176, 6-(2-(4-fluorophenyl)-6,7-dihydro-5H-pyrrolo[1,2-a]imidazol-3-yl)-1H-indazole] |  |  | 0.1 to 1 | > 1
3 | Fc1ccc(-c2nc3occn3c2I)cc1F [Compound 132, 6-(3,4-difluorophenyl)-5-iodoimidazo[2,1-b]oxazole] | > 1 | > 1 |  | 
4 | Fc1cc(F)cc(-c2nc3n(c2-c2ccc4nccnc4c2)CCC3)c1 [Compound 233, 6-(2-(3,5-difluorophenyl)-6,7-dihydro-5H-pyrrolo[1,2-a]imidazol-3-yl)quinoxaline] |  |  | > 1 | > 1
5 | Fc1ccc(-c2nc3occn3c2-c2ccc3nccn3c2)c(F)c1 [Compound 159, 6-(2,4-difluorophenyl)-5-(imidazo[1,2-a]pyridin-6-yl)imidazo[2,1-b]oxazole] | < 0.05 | 0.05 to 0.1 |  | 
6 | Cc1c(F)ccc(-c2nc3n(c2-c2ccc4nccnc4c2)CCC3)c1C [Compound 330, 6-(2-(4-fluoro-2,3-dimethylphenyl)-6,7-dihydro-5H-pyrrolo[1,2-a]imidazol-3-yl)quinoxaline] |  |  | > 1 | > 1
7 | COCCOc1cnc2ccc(-c3c(-c4cc(Cl)ccc4F)nc4n3CCC4)cc2n1 [Compound 354, 7-(2-(5-chloro-2-fluorophenyl)-6,7-dihydro-5H-pyrrolo[1,2-a]imidazol-3-yl)-2-(2-methoxyethoxy)quinoxaline] |  |  | 0.05 to 0.1 | < 0.05
8 | Fc1cccc(-c2nc3n(c2-c2ccc4cn[nH]c4c2)CCC3)c1 [Compound 194, 6-(2-(3-fluorophenyl)-6,7-dihydro-5H-pyrrolo[1,2-a]imidazol-3-yl)-1H-indazole] |  |  | 0.1 to 1 | > 1
9 | Cc1c(F)ccc(-c2nc3n(c2-c2ccc4nccn4c2)CCC3)c1Cl [Compound 67, 6-(2-(2-chloro-4-fluoro-3-methylphenyl)-6,7-dihydro-5H-pyrrolo[1,2-a]imidazol-3-yl)imidazo[1,2-a]pyridine] | 0.1 to 1 | > 1 |  | 
10 | Fc1cc(F)c(F)c(-c2nc3n(c2-c2ccc4ncc(-n5ccnc5)nc4c2)CCC3)c1 [Compound 359, 2-(1H-imidazol-1-yl)-7-(2-(2,3,5-trifluorophenyl)-6,7-dihydro-5H-pyrrolo[1,2-a]imidazol-3-yl)quinoxaline] |  |  | 0.05 to 0.1 | 0.1 to 1
11 | Cc1cc(F)c(-c2nc3n(c2-c2ccc4nccn4c2)CCC3)cc1F [Compound 48, 6-(2-(2,5-difluoro-4-methylphenyl)-6,7-dihydro-5H-pyrrolo[1,2-a]imidazol-3-yl)imidazo[1,2-c]pyridine] | > 1 | > 1 |  | 
12 | Clc1cccc(-c2nc3n(c2-c2ccc4nccn4c2)CCC3)c1 [Compound 6, 6-(2-(3-chlorophenyl)-6,7-dihydro-5H-pyrrolo[1,2-a]imidazol-3-yl)imidazo[1,2-a]pyridine] | 0.1 to 1 | 0.1 to 1 |  | 
13 | Cc1cc(F)ccc1-c1nc2n(c1-c1ccc3nccnc3c1)CCC2 [Compound 294, 6-(2-(4-fluoro-2-methylphenyl)-6,7-dihydro-5H-pyrrolo[1,2-a]imidazol-3-yl)quinoxaline] |  |  | > 1 | > 1
14 | Fc1cc(-c2nc3n(c2-c2ccc4nccnc4c2)CCC3)c(F)cc1Cl [Compound 241, 6-(2-(4-chloro-2,5-difluorophenyl)-6,7-dihydro-5H-pyrrolo[1,2-a]imidazol-3-yl)quinoxaline] | > 1 | > 1 |  | 
15 | Cc1c(F)ccc(-c2nc3n(c2-c2ccc4[nH]ncc4c2)CCC3)c1C [Compound 328, 5-(2-(4-fluoro-2,3-dimethylphenyl)-6,7-dihydro-5H-pyrrolo[1,2-a]imidazol-3-yl)-1H-indazole] |  |  | 0.1 to 1 | > 1
16 | Fc1cc(F)c(-c2nc3n(c2-c2ccc4[nH]ncc4c2)CCC3)cc1F [Compound 220, 5-(2-(2,4,5-trifluorophenyl)-6,7-dihydro-5H-pyrrolo[1,2-a]imidazol-3-yl)-1H-indazole] | 0.05 to 0.1 | 0.1 to 1 |  | 
17 | Fc1cc(F)c(F)c(-c2nc3n(c2-c2ccc4ncnn4c2)CCCN3)c1 [Compound 166, 6-(2-(2,3,5-trifluorophenyl)-5,6,7,8-tetrahydroimidazo[1,2-a]pyrimidin-3-yl)-[1,2,4]triazolo[1,5-a]pyridine] | 0.05 to 0.1 | 0.05 to 0.1 |  | 
18 | Fc1ccc(-c2nc3n(c2-c2ccc4nccnc4c2)CC2(CCCC2)C3)cc1 [Compound 326, 2′-(4-fluorophenyl)-3′-(quinoxalin-6-yl)-5′H,7′H-spiro[cyclopentane-1,6′-pyrrolo[1,2-a]imidazole]] |  |  | > 1 | > 1
19 | Cc1ccccc1-c1nc2n(c1-c1ccc3ncsc3c1)CCC2 [Compound 305, 6-(2-(o-tolyl)-6,7-dihydro-5H-pyrrolo[1,2-a]imidazol-3-yl)benzo[d]thiazole] | 0.1 to 1 | > 1 |  | 
20 | CN(C)CC1CCC2(CC1)Cc1nc(-c3ccc(F)cc3)c(-c3ccc4ncnn4c3)n1C2 (stereo not drawn) [Compound 87, 1-(3′-([1,2,4]triazolo[1,5-a]pyridin-6-yl)-2′-(4-fluorophenyl)-5′H,7′H-spiro[cyclohexane-1,6′-pyrrolo[1,2-a]imidazol]-4-yl)-N,N-dimethylmethanamine] | > 1 | > 1 |  | 
21 | Fc1ccc(-c2nc3n(c2-c2ccc4ncsc4c2)CC2(CCCC2)C3)cc1 [Compound 325, 6-(2′-(4-fluorophenyl)-5′H,7′H-spiro[cyclopentane-1,6′-pyrrolo[1,2-a]imidazol]-3′-yl)benzo[d]thiazole] |  |  | > 1 | > 1
22 | Cc1cc(-c2nc3n(c2-c2ccc4[nH]ncc4c2)CCC3)ccc1F [Compound 172, 5-(2-(4-fluoro-3-methylphenyl)-6,7-dihydro-5H-pyrrolo[1,2-a]imidazol-3-yl)-1H-indazole] |  |  | < 0.05 | 0.05 to 0.1

Second part, led by results:

Row | IC50 (GDF8; [1]) [µM] | IC50 (TGF-β; [2]) [µM] | Compound | IC50 (GDF8; [3]) [µM] | IC50 (TGF-β; [4]) [µM]
23 | < 0.05 | < 0.05 | Cc1ccc(F)c(-c2nc3n(c2-c2ccc4nccnc4c2)CCC3)c1 [Compound 357, 6-(2-(2-fluoro-5-methylphenyl)-6,7-dihydro-5H-pyrrolo[1,2-a]imidazol-3-yl)quinoxaline] |  | 
24 | < 0.05 | < 0.05 | Cc1cccc(-c2nc3occn3c2-c2ccc3nccn3c2)c1 [Compound 143, 6-(m-tolyl)-5-(imidazo[1,2-a]pyridin-6-yl)imidazo[2,1-b]oxazole] |  | 
25 | 0.1 to 1 | 0.1 to 1 | Nc1ncnc2ccc(-c3c(-c4cc(F)cc(F)c4F)nc4n3CCC4)cc12 [Compound 344, 6-(2-(2,3,5-trifluorophenyl)-6,7-dihydro-5H-pyrrolo[1,2-a]imidazol-3-yl)quinazolin-4-amine] |  | 
26 | 0.05 to 0.1 | 0.1 to 1 | FC(F)(F)c1cccc(-c2nc3n(c2-c2ccc4ncsc4c2)CCC3)c1 [Compound 183, 6-(2-(3-(trifluoromethyl)phenyl)-6,7-dihydro-5H-pyrrolo[1,2-a]imidazol-3-yl)benzo[d]thiazole] |  | 
27 | 0.1 to 1 | 0.1 to 1 | Fc1ccc(-c2nc3n(c2-c2ccc4ncccc4c2)CCC3)cc1Cl [Compound 267, 6-(2-(3-chloro-4-fluoropheny)-6,7-dihydro-5H-pyrrolo[1,2-a]imidazol-3-yl)quinoline] |  | 
28 | > 1 | > 1 | Fc1cc(-c2nc3n(c2-c2ccc4nnc(C(F)(F)F)n4c2)CCC3)cc(F)c1F [Compound 33, 3-(trifluoromethyl)-6-(2-(3,4,5-trifluorophenyl)-6,7-dihydro-5H-pyrrolo[1,2-c]imidazol-3-yl)-[1,2,4]triazolo[4,3-c]pyridine] |  | 
29 | < 0.05 | < 0.05 | Cc1cccc(-c2nc3occn3c2-c2ccc3nccnc3c2)c1 [Compound 142, 5-(quinoxalin-6-yl)-6-(m-tolyl)imidazo[2,1-b]oxazole] |  | 
30 | > 1 | > 1 | Cc1cc(-c2nc3n(c2-c2ccc4ncccc4c2)CCC3)cc(C)c1Cl [Compound 246, 6-(2-(4-chloro-3,5-dimethylphenyl)-6,7-dihydro-5H-pyrrolo[1,2-a]imidazol-3-yl)quinoline] |  | 
31 | < 0.05 | < 0.05 | Fc1cc(F)c(-c2nc3occn3c2-c2ccc3ncsc3c2)cc1F [Compound 151, 5-(benzo[d]thiazol-6-yl)-6-(2,4,5-trifluorophenyl)imidazo[2,1-b]oxazole] |  | 
32 | 0.05 to 0.1 | 0.1 to 1 | Cc1cc(-c2nc3n(c2-c2ccc4nccn4c2)CCC3)c(Cl)cc1F [Compound 68, 6-(2-(2-chloro-4-fluoro-5-methylphenyl)-6,7-dihydro-5H-pyrrolo[1,2-a]imidazol-3-yl)imidazo[1,2-a]pyridine] |  | 
33 | 0.05 to 0.1 | 0.1 to 1 | FC(F)(F)c1cccc(-c2nc3n(c2-c2ccc4cn[nH]c4c2)CCC3)c1 [Compound 182, 6-(2-(3-(trifluoromethyl)phenyl)-6,7-dihydro-5H-pyrrolo[1,2-a]imidazol-3-yl)-1H-indazole] |  | 
